Some results are limits rather than exact numbers.

In US11266643B2, “Triaryl compounds for treatment of PD-L1 diseases” (CHEMOCENTRYX, INC., priority 2019, dated 2022) one finds IC50 data, which are given here for 58 compounds.

Chain of human PD-L1 (Q9NZQ7 19-239): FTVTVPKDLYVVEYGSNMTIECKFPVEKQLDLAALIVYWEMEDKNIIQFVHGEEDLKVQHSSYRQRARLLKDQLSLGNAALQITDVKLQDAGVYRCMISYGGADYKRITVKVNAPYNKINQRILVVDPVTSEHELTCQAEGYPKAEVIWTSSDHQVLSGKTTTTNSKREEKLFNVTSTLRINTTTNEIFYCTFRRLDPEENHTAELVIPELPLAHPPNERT

This experiment has as its target human PD-L1 (Homo sapiens (Human), UniProt Q9NZQ7). Briefly: Enzyme-Linked Immunosorbent Assay (ELISA), PD-1/PD-L1 binding. To be noted: PD-1/PD-L1 ELISA, human PD-L1 coated plates, Table 1. Put shortly: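 Competitive ELISA: human PD-1 […] (0.31 μg/mL) and serially diluted compounds (1:5) incubated 1 h at 37° C on wells coated with […] human PD-L1. Signal via streptavidin-HRP/TMB, stopped with 2 N H2SO4, measured as A450.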
(In general: An ELISA detects its analyte on a solid surface through an enzyme-linked reagent.)
Turning to `COc1cc(-c2cccc(-c3cccc(Nc4nccc5nccnc45)c3C)c2C)cc(F)c1CNC[C@@H](C)O` [Example 1.208], the IC50 (in general, the concentration that gives 50% inhibition) is under 10 nM.
With `COc1cc(-c2cccc(-c3cccc(NC(=O)c4cncn(C)c4=O)c3C)c2C)cc(F)c1CN[C@@H]1CNC(=O)C1` [Example 1.209] the figure was under 10 nM.
The value for `COc1cc(-c2cccc(-c3cccc(NC(=O)C4=CNCN(C)C4=O)c3C)c2C)cc(F)c1CNCCO` [Example 1.210] was under 10 nM.
With `COc1cc(-c2cccc(-c3cccc(NC(=O)c4cncn(C)c4=O)c3C)c2C)cc(F)c1CNC[C@@H]1CCC(=O)N1` [Example 1.211] the figure was under 10 nM; with `COc1cc(-c2cccc(-c3cccc(NC(=O)c4c[nH]c(=O)n(C)c4=O)c3C)c2C)cc(F)c1CNC1CNC1` [Example 1.212], 10 to 1000 nM.
Consider `COc1cc(-c2cccc(-c3cccc(Nc4nccc5nccnc45)c3C)c2C)cc(F)c1CNC1CCOC1` (stereo not shown) [Example 1.213], for which the IC50 is under 10 nM.
On to `COc1cc(-c2cccc(-c3cccc(NC(=O)c4c[nH]c(=O)n(C)c4=O)c3C)c2C)cc(F)c1CNCC1(O)CC1` [Example 1.214], for which the IC50 is under 10 nM.
With `COc1cc(-c2cccc(-c3cccc(Nc4nccc5c4C(=O)N(C)CC5)c3C)c2C)cc(F)c1CNCCO` [Example 1.215] the figure was 10 to 1000 nM; with `COc1cc(-c2cccc(-c3cccc(NC(=O)c4c[nH]c(=O)n(C)c4=O)c3C)c2C)cc(F)c1CNC1COC1` [Example 1.216], 10 to 1000 nM.
The value for `COc1cc(-c2cccc(-c3cccc(NC(=O)c4c[nH]c(=O)n(C)c4=O)c3C)c2C)cc(F)c1CN[C@@H]1CCCC[C@@H]1O` [Example 1.217] was under 10 nM; that for `COc1cc(-c2cccc(-c3cccc(NC(=O)c4c[nH]c(=O)n(C)c4=O)c3C)c2C)cc(F)c1CN[C@@H]1CCC[C@@H]1O` [Example 1.218] was under 10 nM; that for `COc1cc(-c2cccc(-c3cccc(Nc4nccc5c4C(=O)N(C)CC5)c3C)c2C)cc(F)c1CN1CC(C(=O)OC(C)C)C1` [Example 1.219] was 10 to 1000 nM.
`COc1cc(-c2cccc(-c3cccc(NC(=O)c4c[nH]c(=O)n(C)c4=O)c3C)c2C)cc(F)c1CN(C)CCO` [Example 1.220] showed an IC50 of under 10 nM.
The value for `COc1cc(-c2cccc(-c3cccc(NC(=O)c4cncn(C)c4=O)c3C)c2C)cc(F)c1CNCCO` [Example 1.221] was under 10 nM; that for `COc1cc(-c2cccc(-c3cccc(NC(=O)c4c[nH]c(=O)n(C)c4=O)c3C)c2C)cc(F)c1CNC[C@@H](C)O` [Example 1.222] was under 10 nM; that for `COc1cc(-c2cccc(-c3cccc(NC(=O)c4c[nH]c(=O)n(C)c4=O)c3C)c2C)cc(F)c1CNC[C@H](C)O` [Example 1.223] was under 10 nM.
Compound `COc1cc(-c2cccc(-c3cccc(NC(=O)c4c[nH]c(=O)n(C)c4=O)c3C)c2C)cc(F)c1CNC1CCOC1` (stereo not shown) [Example 1.224] showed an IC50 of under 10 nM.
`COc1cc(-c2cccc(-c3cccc(NC(=O)c4c[nH]c(=O)n(C)c4=O)c3C)c2C)cc(F)c1CN[C@H](C)CO` [Example 1.225]: the IC50 was under 10 nM.
With `COc1cc(-c2cccc(-c3cccc(NC(=O)c4c[nH]c(=O)n(C)c4=O)c3C)c2C)cc(F)c1CN[C@@H](C)CO` [Example 1.226] the figure was under 10 nM; with `COc1cc(-c2cccc(-c3cccc(NC(=O)c4c[nH]c(=O)n(C)c4=O)c3C)c2C)cc(F)c1CN1CC(N)C1` [Example 1.227], under 10 nM.
For the compound `COc1cc(-c2cccc(-c3cccc(NC(=O)c4c[nH]c(=O)n(C)c4=O)c3C)c2C)cc(F)c1CN1CCC(N)C1` (stereo not shown) [Example 1.228], the IC50 was 10 to 1000 nM.
Regarding `COc1cc(-c2cccc(-c3cccc(NC(=O)c4c[nH]c(=O)n(C)c4=O)c3C)c2C)cc(F)c1CN[C@@H]1CNC(=O)C1` [Example 1.229], the IC50 was under 10 nM.
With `COc1cc(-c2cccc(-c3cccc(NC(=O)c4c[nH]c(=O)n(C)c4=O)c3C)c2C)cc(F)c1CN[C@H]1CCC(=O)NC1` [Example 1.230] the figure was under 10 nM.
With `COc1cc(-c2cccc(-c3cccc(Nc4nccc5nccnc45)c3C)c2C)cc(F)c1CN1CC(O)C1` [Example 1.231] the figure was under 10 nM.
With `COc1cc(-c2cccc(-c3cccc(NC(=O)c4c[nH]c(=O)n(C)c4=O)c3C)c2C)cc(F)c1CNCC(C)(C)O` [Example 1.232] the figure was under 10 nM; with `COc1cc(-c2cccc(-c3cccc(NC(=O)c4c[nH]c(=O)n(C)c4=O)c3C)c2C)cc(F)c1CNCCN` [Example 1.234], under 10 nM; with `COc1cc(-c2cccc(-c3cccc(NC(=O)c4c[nH]c(=O)n(C)c4=O)c3C)c2C)cc(F)c1CN1CCOCC1` [Example 1.235], 10 to 1000 nM.
In turn, `COc1cc(-c2cccc(-c3cccc(NC(=O)c4c[nH]c(=O)n(C)c4=O)c3C)c2C)cc(F)c1CNC(C)C` [Example 1.236] returned an IC50 of under 10 nM.
With `COc1cc(-c2cccc(-c3cccc(Nc4nccc5nccnc45)c3C)c2C)cc(F)c1CNCCO` [Example 1.238] the figure was under 10 nM; with `COc1cc(-c2cccc(-c3cccc(Nc4nccc5nccnc45)c3C)c2C)cc(F)c1CNCC(N)=O` [Example 1.239], 10 to 1000 nM; with `COc1cc(-c2cccc(-c3cccc(Nc4nccc5nccnc45)c3C)c2C)cc(F)c1CNCC(=O)O` [Example 1.240], under 10 nM.
On to `COc1cc(-c2cccc(-c3cccc(NC(=O)c4c[nH]c(=O)n(C)c4=O)c3C)c2C)cc(F)c1CN(C)C` [Example 1.241], for which the IC50 is under 10 nM.
The value for `COc1cc(-c2cccc(-c3cccc(NC(=O)c4c[nH]c(=O)n(C)c4=O)c3C)c2C)cc(F)c1CN1CC2(C1)NC(=O)NC2=O` [Example 1.242] was 10 to 1000 nM; that for `COc1cc(-c2cccc(-c3cccc(Nc4ncnc5cccnc45)c3C)c2C)cc(F)c1CN1CC(C(=O)O)C1` [Example 1.243] was 1000 to 10000 nM; that for `COc1cc(-c2cccc(-c3cccc(Nc4nccc5c4OCCN5)c3C)c2C)cc(F)c1CN1CC(C(=O)O)C1` [Example 1.244] was 10 to 1000 nM.
With `COc1cc(-c2cccc(-c3cccc(Nc4ccnc5nccnc45)c3C)c2C)cc(F)c1CN1CC(C(=O)O)C1` [Example 1.245] the figure was under 10 nM; with `COc1cc(-c2cccc(-c3cccc(Nc4cccc5cncnc45)c3C)c2C)cc(F)c1CN1CC(C(=O)O)C1` [Example 1.246], 10 to 1000 nM.
`COc1cc(-c2cccc(-c3cccc(NC(=O)c4c[nH]c(=O)n(C)c4=O)c3C)c2C)cc(F)c1CN(C)CCC(=O)O` [Example 1.247] had an IC50 of 10 to 1000 nM.
The value for `COc1cc(-c2cccc(-c3cccc(Nc4cccc5nccnc45)c3C)c2C)cc(F)c1CN1CC(C(=O)O)C1` [Example 1.248] was 10 to 1000 nM; that for `COc1cc(-c2cccc(-c3cccc(Nc4nccn5ccnc45)c3C)c2C)cc(F)c1CN1CC(C(=O)O)C1` [Example 1.249] was 10 to 1000 nM.
The value for `COc1cc(-c2cccc(-c3cccc(Nc4cccc5c4C(=O)N(C)C5)c3C)c2C)cc(F)c1CN1CC(C(=O)O)C1` [Example 1.250] was 10 to 1000 nM.
The value for `COc1cc(-c2cccc(-c3cccc(NC(=O)c4c[nH]c(=O)n(C)c4=O)c3C)c2C)cc(F)c1CN(C)CC(N)=O` [Example 1.251] was 10 to 1000 nM; that for `COc1cc(-c2cccc(-c3cccc(NC(=O)c4c[nH]c(=O)n(C)c4=O)c3C)c2C)cc(F)c1CNCC(N)=O` [Example 1.252] was 10 to 1000 nM; that for `COc1cc(-c2cccc(-c3cccc(Nc4cncc5nccnc45)c3C)c2C)cc(F)c1CN1CC(C(=O)O)C1` [Example 1.253] was under 10 nM.
Consider `COc1cc(-c2cccc(-c3cccc(NC(=O)c4cncn(C)c4=O)c3C)c2C)cc(F)c1CN[C@H]1CCC(=O)NC1` [Example 1.255], for which the IC50 was under 10 nM.
The value for `COc1cc(-c2cccc(-c3cccc(Nc4cccc5cccnc45)c3C)c2C)cc(F)c1CN1CC(C(=O)O)C1` [Example 1.256] was 10 to 1000 nM.
In turn, `COc1cc(-c2cccc(-c3cccc(NC(=O)c4c[nH]c(=O)n(C)c4=O)c3C)c2C)cc(F)c1CN1CCC2(C1)NC(=O)NC2=O` (stereo not shown) [Example 1.257] yielded an IC50 of 10 to 1000 nM.
The value for `COc1cc(-c2cccc(-c3cccc(NC(=O)c4cncn(C)c4=O)c3C)c2C)cc(F)c1CNCCS(=O)(=O)O` [Example 1.260] was under 10 nM; that for `COc1cc(-c2cccc(-c3cccc(NC(=O)c4c[nH]c(=O)n(C)c4=O)c3C)c2C)cc(F)c1CNCC(=O)O` [Example 1.261] was under 10 nM.
The value for `COc1cc(-c2cccc(-c3cccc(Nc4nccc5ccccc45)c3C)c2C)cc(F)c1CN1CC(C(=O)O)C1` [Example 1.262] was 1000 to 10000 nM; that for `COc1cc(-c2cccc(-c3cccc(Nc4ccnc5cccnc45)c3C)c2C)cc(F)c1CN1CC(C(=O)O)C1` [Example 1.263] was 10 to 1000 nM; that for `COc1cc(-c2cccc(-c3cccc(Nc4cc5c(cn4)C(=O)NCC5)c3C)c2C)cc(F)c1CN1CC(C(=O)O)C1` [Example 1.264] was 10 to 1000 nM.
With `COc1cc(-c2cccc(-c3cccc(Nc4nccc5c4C(=O)N(C)CC5)c3C)c2C)cc(F)c1CN1CC(C(=O)O)C1` [Example 1.265] the figure was under 10 nM; with `COc1cc(-c2cccc(-c3cccc(NC(=O)c4cncn(C)c4=O)c3C)c2C)cc(F)c1CNCCC(=O)O` [Example 1.266], under 10 nM.
Consider `COc1cc(-c2cccc(-c3cccc(NC(=O)c4cncn(C)c4=O)c3C)c2C)cc(F)c1CNCC(=O)O` [Example 1.267], for which the IC50 is under 10 nM.
With `COc1cc(-c2cccc(-c3cccc(NC(=O)c4cncn(C)c4=O)c3C)c2C)cc(F)c1CN(C)CCC(=O)O` [Example 1.268] the figure was under 10 nM; with `COc1cc(-c2cccc(-c3cccc(NC(=O)c4cncn(C)c4=O)c3C)c2C)cc(F)c1CN1CCC2(C1)NC(=O)NC2=O` (stereo not shown) [Example 1.269], under 10 nM.
The value for `COc1cc(-c2cccc(-c3cccc(NC(=O)c4c[nH]c(=O)n(C)c4=O)c3C)c2C)cc(F)c1CNCCO` [Example 1.270] was under 10 nM.
